In patent US20040121965A1, “Method of treating resistant tumors” (Wyeth Holdings Corporation, priority 2002, published 2004):
Like-named read-outs stand apart in the source and are kept apart here. Marks after values point to notes of the source that are not given here.

Key:
Panc1 = test: Cell survival assay (SRB), Panc1; type: cell-based; details: Homo sapiens, PANC-1, 72 h
Procedure: (§1) 2.2. Cell Survival Assay: Standard Pharmacological Test Procedure. […] Compounds are incubated with cells for 3 days.

Colo205 = test: Cell survival assay (SRB), Colo205; type: cell-based; details: Homo sapiens, COLO 205, 72 h
Procedure: as §1

SKOV3 = test: Cell survival assay (SRB), SKOV3; type: cell-based; details: Homo sapiens, SK-OV-3, 72 h
Procedure: as §1

KB-8.5 tumor = test: Growth of tumors in nude mice, KB-8-5 xenograft; type: in vivo; details: days 1,5,9
Text: (§2) 2.4. Growth of Tumors in Nude Mice.

SW620 = test: Cell survival assay (SRB), SW620; type: cell-based; details: Homo sapiens, SW-620, 72 h
Procedure: as §1

Moser = test: Cell survival assay (SRB), Moser; type: cell-based; details: 72 h
Procedure: as §1

A431 = test: Cell survival assay (SRB), A431; type: cell-based; details: Homo sapiens, A-431, 72 h
Procedure: as §1

HCT-116 = test: Cell survival assay (SRB), HCT-116; type: cell-based; details: Homo sapiens
Procedure: as §1

[1] = test system: KB-PTX-15+099 tumor xenografts; test: Growth of tumors in nude mice, KB-PTX-15+099 xenograft; details: days 1,8,15
[2] = test system: Human Melanoma Carcinoma Lox; details: for inhibition of growth of Lox melanoma xenografts: day 14, P<0.01; for % T/C on day 7 / % T/C on day 12: Lox, days 1,5,9; for Activity in nude mice animal model (% T/C @ MTD on days 11-15) LOX: staged LOX xenograft, at MTD ('<': MTD not achieved)
SK-MES-1 = test: Cell survival assay (SRB), SK-MES-1; type: cell-based; details: Homo sapiens
Procedure: as §1

MX-1W = test: Cell survival assay (SRB), MX-1W; type: cell-based; details: Homo sapiens, MX1W, 72 h, 3 days
Text: Cells lines with previously known mechanisms of resistance. […] Res. 8: 207-218,1996); KB-3-1 (parental derived from an epidermoid carcinoma), KB-8.5, KB-V1 (Akiyama S-I, Fojo A, Hanover J A, Pastan I, Gottesman M M. Isolation and genetic characterization of human KB cell lines resistant to multiple drugs. Somatic Cell Mol. Gen., 11: 117-126,1985; Shen D-W, Cardarelli C, Hwang J, Cornwell M, Richert N, Ishii S, Pastan I, Gottesman MM. […] J. Biol. Chem., 261: 7762-7770, 1986); and HL-60 (parental derived from human leukemia) and HL60/AR (McGrath T., Center M. S. Adriamycin resistance in HL60 cells in the absence of detectable P-glycoprotein. Biochem. Res. Commun., 145:1171-1176,1987); A549 and A549.EpoB40 (He L., Yang C.-P.H., Horwitz S. B. Mutations in p-tubulin map to domains involved in regulation of microtubule stability in epothilone-resistant cell lines. Molecular Cancer Therapeutics. 1: 3-10, 2001). HCT-15 human colon carcinoma and DLD-1 human colon carcinoma are obtained from American Tissue Culture Collection. The MX-1W carcinoma is a Wyeth variant orginally obtained as MX-1 breast carcinoma from the National Cancer Institute. Cell lines selected for resistance to Representative Example 129. KB-3-1 cells are selected for resistance to Example 129 by chronically exposing cells to increasing concentrations of Example 129.
2.2. Cell Survival Assay: Standard Pharmacological Test Procedure. The concentration of candidate inhibitor required to inhibit 50% of cell growth (IC50) is done according to previously reported methods. […] Compounds are serially diluted into media as 2× stocks and 100 μl added to cells in duplicate. Compounds are incubated with cells for 3 days. At the end of the incubation period the sulforhodamine B (SRB) assay, which measures protein content as an assessment of cell survival, is performed as described previously (Skehan P, Storeng R, Scudiero D, Monks A, McMahon J, Vistica D, Warren J T, Bokesch H, Kenney S, Boyd MR. New calorimetric cytotoxicity assay for anticancer-drug screening. J Natl Cancer Inst 1990 Jul 4;82(13):1107-12) with some modification as follows. For KB-3-1 cells with 20% FCS, media is gently decanted and replaced with 200 μl of serum-free media mixed with cold 50% TCA for a final concentration of 10% TCA. The plates are incubated for 1 hr at 4° C., followed by washing 5 times in cold distilled water, then air dried overnight. The fixed cells are stained for 10 min with 80 μl of 0.04% SRB solution prepared in 1% glacial acetic acid. Stain is discarded and plates washed 5 times in 1% glacial acetic acid, then air-dried until completely dry. Stained cell product is dissolved in 150 μl of 10 mM Trizma Base and placed on a shaker for 20 minutes until fully dissolved. Absorbance is read on a Victor V multi-label plate reader (Perkin Elmer, Gaithersburg, Md.).

[3] = test system: Human Epidermoid Carcinoma KB-3-1; test: Growth of tumors in nude mice, KB-3-1 xenograft; type: in vivo; details: for % T/C on day 7 / % T/C on day 14 / % T/C on day 21: KB-3-1, days 1,5,9
Procedure: as §2
In these experiments, xenografts are implanted subcutaneously into the flanks of nude mice. […] Relative tumor mass compared to controls are assessed during the 21-day post-staging period.
Groups of 5 female nu/nu mice are injected with 1.5×10^6 KB-3-1 (A) or Lox cells (B). […] Relative tumor growth is determined during the experiment and % T/C calculated. Statistical analyses are Student's t-test of treated time points vs. vehicle (*, P<0.05; **, P<0.01)

[4] = IV in saline, days 1, 5, 9 post-staging, 0.5-1 mg/kg, tumors 1-2 gram
[5] = LOX xenograft model, IV days 1, 5 and 9

Compound: CN[C@H](C(=O)N[C@H](C(=O)N(C)[C@H](/C=C(\C)C(=O)O)C(C)C)C(C)(C)C)C(C)(C)c1ccccc1 [Example 129, N,β,β-trimethyl-L-phenylalanyl-N^1-[(1S,2E)-3-carboxy-1-isopropylbut-2-enyl]-N^1,3-dimethyl-L-valinamide]
- IC50 (Panc1): 2.9 ± 0.1 nM
- IC50 (Colo205): 1.5 ± 0.6 nM
- IC50 (SKOV3): 1.7 nM
- % T/C on day 6 (KB-8.5 tumor; Example 129 1.6 mg/kg IV): 25** %
- % T/C on day 14 (KB-8.5 tumor; Example 129 1.6 mg/kg IV): 16%
- % T/C on day 21 (KB-8.5 tumor; Example 129 1.6 mg/kg IV): 47** %
- IC50 (SW620): 3.6 ± 0.8 nM
- IC50 (Moser): 5.3 ± 4.1 nM
- IC50 (A431): 2.4 ± 0.4 nM
- IC50 (HCT-116; HCT-116, 72 h): 0.7 ± 0.2 nM
- % T/C on day 6 ([1]; Example 129 1.25 mg/kg IV): 32** %
- % T/C on day 9 ([1]; Example 129 1.25 mg/kg IV): 19** %
- % T/C on day 13 ([1]; Example 129 1.25 mg/kg IV): 9** %
- % T/C on day 16 ([1]; Example 129 1.25 mg/kg IV): 10** %
- % T/C on day 20 ([1]; Example 129 1.25 mg/kg IV): 7** %
- inhibition of growth of Lox melanoma xenografts ([2]; 2 mg/kg oral gavage days 1,5,9): 63%
- inhibition of growth of Lox melanoma xenografts ([2]; 3 mg/kg oral gavage days 1,5,9): 97%
- weight loss ([2]; 2 and 3 mg/kg oral gavage days 1,5,9): less than 10%
- growth inhibition of melanoma Lox tumors [2, 4]: > 95%
- maximum effective dose [2, 5]: ~1600 µg/kg
- minimum effective dose [2, 5]: approximately 200 μg/kg
- % T/C on day 7 ([2]; Example 129 1.6 mg/kg IV): 12** %
- % T/C on day 12 ([2]; Example 129 1.6 mg/kg IV): 2** %
- Activity in nude mice animal model (% T/C @ MTD on days 11-15) LOX [2]: 2.5%
- IC50 (SK-MES-1; SK-MES-1, 72 h): 2.6 nM
- IC50 (MX-1W; MX-1W, breast, SRB staining): 1.8 ± 0.6 nM
- IC50 (MX-1W; MX-1W, SRB, vehicle control (DMSO), no MDR-1 inhibitor): 1.4 nM
- IC50 (MX-1W; read-out: IC50 + 5.0 uM MDR-1 inhibitor, MX-1W, SRB, + 5.0 uM 7-(6,7-dimethoxy-3,4-dihydro-1H-isoquinolin-2-yl)-2(3,4-dimethoxy-phenyl)-2-p-tolysulfanyl-heptanenitrile): 1.3 nM
- growth inhibition of epidermoid KB-3-1 tumors [3, 4]: > 95%
- % T/C on day 7 ([3]; Example 129 1.6 mg/kg IV): 10** %
- % T/C on day 14 ([3]; Example 129 1.6 mg/kg IV): 1** %
- % T/C on day 21 ([3]; Example 129 1.6 mg/kg IV): 23* %

Compound: CC(=O)O[C@H]1C(=O)[C@@]2(C)[C@H]([C@H](OC(=O)c3ccccc3)[C@]3(O)C[C@H](OC(=O)[C@H](O)[C@@H](NC(=O)c4ccccc4)c4ccccc4)C(C)=C1C3(C)C)[C@]1(OC(C)=O)CO[C@@H]1C[C@@H]2O [paclitaxel, reference compound]
- IC50 (Panc1; Panc1, pancreatic, 3 days, SRB staining, read-out: IC50): 28.9 nM
- IC50 (Colo205; Colo205, colon, 3 days, SRB staining, read-out: IC50): 6.9 ± 2.3 nM
- IC50 (SKOV3; SKOV3, ovarian, 3 days, SRB staining, read-out: IC50): 9 nM
- % T/C on day 6 (KB-8.5 tumor; paclitaxel 60 mg/kg IV): 63** %
- % T/C on day 14 (KB-8.5 tumor; paclitaxel 60 mg/kg IV): 86%
- IC50 (SW620; SW620, colon, 3 days, SRB staining, read-out: IC50): 18 nM
- IC50 (Moser; Moser, colon, 3 days, SRB staining, read-out: IC50): 1590 ± 1990 nM
- IC50 (A431; A431, squamous, 3 days, SRB staining, read-out: IC50): 7.6 nM
- IC50 (HCT-116; 72 h, HCT-116, colon, 3 days, SRB staining, read-out: IC50): 4.5 nM
- % T/C on day 6 ([1]; paclitaxel 60 mg/kg IV): 103%
- % T/C on day 9 ([1]; paclitaxel 60 mg/kg IV): 93%
- % T/C on day 13 ([1]; paclitaxel 60 mg/kg IV): 89%
- % T/C on day 16 ([1]; paclitaxel 60 mg/kg IV): 87%
- % T/C on day 20 ([1]; paclitaxel 60 mg/kg IV): 90%
- % T/C on day 7 ([2]; paclitaxel 60 mg/kg IV): 16** %
- % T/C on day 12 ([2]; paclitaxel 60 mg/kg IV): 4** %
- Activity in nude mice animal model (% T/C @ MTD on days 11-15) LOX [2]: 4%
- IC50 (SK-MES-1; 72 h, SK-MES-1, NSCLC, 3 days, SRB staining, read-out: IC50): 29 nM
- IC50 (MX-1W; MX-1W, breast, SRB staining, read-out: IC50): 15.4 ± 2.9 nM
- IC50 (MX-1W; MX-1W, SRB, + 5.0 uM 7-(6,7-dimethoxy-3,4-dihydro-1H-isoquinolin-2-yl)-2(3,4-dimethoxy-phenyl)-2-p-tolysulfanyl-heptanenitrile, read-out: IC50 + 5.0 uM MDR-1 inhibitor): 8.3 nM
- IC50 (MX-1W; MX-1W, SRB, vehicle control (DMSO), no MDR-1 inhibitor, read-out: IC50): 138 nM
- % T/C on day 7 ([3]; paclitaxel 60 mg/kg IV): 5** %
- % T/C on day 14 ([3]; paclitaxel 60 mg/kg IV): 0** %
- % T/C on day 21 ([3]; paclitaxel 60 mg/kg IV): 0** %
